Source: patent publication US12447184B1, “Lactic acid bacteria and use thereof” (UNIVERSITY-INDUSTRY COOPERATION GROUP OF KYUNG HEE …, priority 2017, dated 2025)

What was measured:
C57BL/6 mouse = assay: Elevated plus maze (EPM) test; format: in vivo; conditions: for OE (%) / OT (%): immobilization stress
Text: In order to induce a mental disorder such as anxiety, depression, stress or the like, a mouse was fixed to a 3×10 cm cylindrical-shaped immobilization stress apparatus, such that the mouse may not move therein at all.
Particularly, in order to prepare a mouse with anxiety induced by immobilization stress, the said mouse, which had been fixed to the apparatus, was repeatedly subjected to immobilization stress five times, in such a way that the mouse was held with its head up for two hours once every other day, and then a behavioral experiment was performed in two hours after a final immobilization stress.
(§1) Also, in order to prepare a mouse with depression induced by immobilization stress, the said mouse, which had been fixed to the apparatus, was repeatedly subjected to continuous immobilization stress once daily for two days, in such a way that the mouse was held with its head up for 12 hours. A lactic acid bacterium was administered once daily for five days, and a behavioral experiment was performed in one hour after a final administration.
In order to induce a mental disorder such as anxiety, depression, stress or the like, a mouse was administered ampicillin (100 mg/kg) for two days in a row. An anxiety behavior was measured in 10 days after administration.
For a mouse model with immobilization stress induced, a lactic acid bacterium or physiological saline solution was administered thereto depending on an experimental group once daily for three days from Day 7 after starting the immobilization stress. For a mouse model with antibiotic stress induced, a lactic acid bacterium or physiological saline solution was administered thereto depending on an experimental group once daily for three days from Day 7 after starting the antibiotic stress.
(§2) An anxiety behavior was measured in five hours after administering the lactic acid bacterium or physiological saline solution, and blood indicators (corticosterone, IL-6, TNF-α, etc.) were measured by collecting blood in one hour after finishing an elevated plus maze test.
An elevated plus maze is an experimental apparatus to measure a degree of a mental disorder such as stress, anxiety or the like. An elevated plus maze experimental apparatus used in the present experiment is a black plexiglass apparatus, in which two open arms (30×7 cm) and two enclosed arms (30×7 cm) with 20 cm-high walls stand 50 cm high above a floor, each extending 7 cm away from a center platform. In the present test, a mouse was placed in the elevated plus maze in a room, where a video camera of 20 Lux was installed high up there, and then a movement of the mouse was recorded.
Particularly, a C57BL/6 mouse (male, 19-22 g) was placed in the middle of the elevated plus maze, in such a way that a head of the mouse faced toward an open arm. Time spent in open and closed arms as well as the number of arm entries were measured for five minutes. An arm entry was defined as a case in which the mouse entered an arm with all four feet.
Out of a whole test time, the time spent in open arms (OT) was calculated via [Time spent in open arms (OT)/(Time spent in open arms (OT)+Time spent in closed arms)]×100. […] After the end of each behavioral experiment, remaining smell was eliminated by means of 70% ethanol.
According to a known interpretation of test results, it was interpreted that a mental disorder symptom such as anxiety, depression or the like occurs, if OT and OE decrease.

mouse [1] = assay: Light/dark transition test; format: in vivo; conditions: immobilization stress model
Experimental: An apparatus used for a light/dark transition test consisted of a bright area (21×42×25 cm, 390 Lux white diode) and a dark area (21×42×25 cm, 2 Lux), which were of a size and partitioned off with a door (7.5×7.5 cm). A mouse was placed in a bright area and observed for five minutes, during which time in bright area and the number of transitions into the bright area were measured. After the end of each behavioral experiment, remaining smell was eliminated by means of 70% ethanol.
According to a known interpretation of test results, it was interpreted that a mental disorder symptom such as anxiety, depression or the like occurs, if the time in bright area and the number of transitions into the bright area decrease.

mouse [2] = assay: Forced swimming test (FST); format: in vivo; conditions: depressed mouse model
Experimental: as §1
According to a method of Porsolt et al. (Porsolt R D, Le Pichon, Jalfre M (1977) Depression: A new animal model sensitive to antidepressant treatments, Nature, Vol. 266; pp. 730-732), water at 25±1° C. was filled into a water tank 40 cm in height and 20 cm in diameter, until a water level reached 25 cm high. A laboratory mouse was put into each tank and stayed there for total six minutes, out of which first two minutes were not measured as an adaptive time, and then for the last four minutes, an immobility time of the laboratory animal was measured. The immobility means a state that the mouse is floating in the water motionlessly except the least movement to keep its head only above the water.

mouse [3] = assay: Tail suspension test (TST); format: in vivo; conditions: depressed mouse model
Experimental: as §1
According to a method of Steru et al. (Steru L, Chermat R, Thierry B, Simon P (1985) The tail suspension test: A new method for screening antidepressants in mice, Psychopharmacology, Vol. 85; pp. 367-370), a mouse was hanged up in a container 35 cm in diameter and 50 cm in height by placing a fixing device approximately 1 cm from the tip of a tail thereof of a mouse, such that the mouse was suspended 50 cm above a floor. For six minutes in total, an immobility time of the laboratory animal was measured.

[4] = system: corticosterone, IL-6, TNF-α and lipopolysaccharide in blood; assay: Blood indicators (corticosterone, IL-6, TNF-α, lipopolysaccharide); format: in vivo, mouse; conditions: for BC (ng/mL), corticosterone in blood: immobilization stress
Experimental: as §2
Blood was diluted 10 times with PBS, then centrifuged, and then a resulting supernatant was treated at […] for 10 minutes. A resulting supernatant was filtered with a 0.45 μm filter, then filtered again with a 0.22 μm filter, and then used as a specimen. For the said specimen, lipopolysaccharide was measured by means of Limulus amoebocyte lysate (LAL) assay kit (Cape Cod Inc., East Falmouth, MA, U.S.A.).
(§3) Inflammatory reaction biomarkers such as p-p65, p65, iNOS, COX-2 and β-actin were measured by means of a western blotting method. Particularly, 50 μg of supernatant, which had been obtained by the same method as shown in the said experiment for measuring the activity of myeloperoxidase (MPO), was taken and then immune blotting was performed thereon. Also, an expression level of cytokines was measured by means of ELISA kit, and LPS was measured by means of LAL assay kit.
(§4) In two hours after performing a last behavioral experiment on a depressed mouse, the mouse was anesthetized, and corticosterone in blood was measured by means of ELISA, and a brain derivated neurotrophic factor (BDNF) and NF-κB of a brain and NF-κB of a colon were measured by means of immunoblotting by the same method as shown in Experimental Example 5 above, wherein the results thereof are as shown in a following table 14.

[5] = system: NF-κB (p-p65/p65) and BDNF in a hippocampus; assay: NF-κB activity and BDNF expression in hippocampus (immunoblotting); format: in vivo; conditions: depressed mouse
Experimental: as §3, §4

colon [6] = assay: Colitis indicators (colon length, myeloperoxidase, inflammatory indicators of the colon); format: in vivo, mouse; conditions: immobilization stress
Experimental: 200 μl of 10 mM potassium phosphate buffer, pH 7.0 containing 0.5% hexadecyl trimethyl ammonium bromide was put into 100 mg of a colon tissue, and then subjected to homogenization. A resulting mixture was centrifuged for 10 minutes on condition of 4° C. and 10,000 g, so as to obtain a supernatant. 50 μl of the supernatant was put into 0.95 ml of a reaction solution (containing 1.6 mM tetramethyl benzidine and 0.1 mM H2O2), then subjected to reaction at 37° C., and then an observance was […] measured at 650 nm. An activity of the said myeloperoxidase (MPO) was calculated with a resulting reactant H2O2 1 μmol/ml=1 unit.
as §3
In two hours after performing a last behavioral experiment on an anxious mouse in Experimental Example 1, the mouse was anesthetized, and a colon length and activations of MPO, COX-2, TNF-α and NF-Kb were measured by the same method as shown in Experimental Example 5, wherein the results thereof are as shown in a following table 15.

mouse [7] = assay: Object recognition test; format: in vivo; conditions: mouse given LPS from E. coli 0.5 mg/kg/day i.p. for five days
Experimental: (§5) On a following day after intraperitoneally administering LPS isolated from E. coli (0.5 mg/kg/day) to a mouse for five days, lactic acid bacteria were administered thereto, and an effect of lactic acid bacteria on improving a cognitive function was identified in such a way that an object recognition test and a Y maze test were performed and BDNF in a hippocampus was measured by immunoblotting, wherein the results thereof are as shown in a following table 18.
Particularly, as an object recognition test method, two objects (A, A′) of the same shape and size were fixed into a box (40×40×40 cm), of which outside is not visible from the inside, then a mouse was allowed to start moving at the center of the box, and then the number of touching the two objects was recorded for 10 minutes. In 24 hours later, one of the two objects was replaced with a new one (A, B), and then the number of touching an old one and a new one was recorded and quantified.

mouse [8] = assay: Y maze test; format: in vivo; conditions: mouse given LPS from E. coli 0.5 mg/kg/day i.p. for five days; spontaneous alteration
Experimental: as §5
Also, as a Y maze test method, a test apparatus consisted of the three identical arms (8 cm in length, […], 14 cm in height), each positioning at a certain angle of 120°. The mouse was placed at the end of one arm and allowed to freely move in a Y maze for eight minutes, after which the number and order of entering respective arms were measured, so as to evaluate a spontaneous alteration (%). The alteration was defined as an alphabetical character order, in which the mouse sequentially entered into three arms, i.e. ABC, BCA, CAB, etc. % alteration=[Total number of alterations]/[Total number of arm entries−2]×100

BDNF in a hippocampus = BDNF in a hippocampus by immunoblotting (LPS-treated mouse); format: in vivo; conditions: mouse given LPS from E. coli 0.5 mg/kg/day i.p. for five days
Experimental: as §5

colon [9] = assay: Colitis indicators (colon length, myeloperoxidase, inflammatory indicators of the colon); format: in vivo, mouse; conditions: antibiotic stress
[10] = antibiotic stress (ampicillin 100 mg/kg, two days)

**Q.** Which results are given for O=C1CC2(CCCC2)CC(=O)N1CCCCN1CCN(c2ncccn2)CC1 [Buspirone]?
**A.** OE (%) (C57BL/6 mouse; Anxious mouse): 33.8%; OT (%) (C57BL/6 mouse; Anxious mouse, once daily for three days): 16.7%; OE (%) (C57BL/6 mouse; Depressive mouse): 29.8%; OT (%) (C57BL/6 mouse; Depressive mouse): 15.7%; Open arm entries (%) (C57BL/6 mouse; [10]): 31.3%; Time spent in open arms (%) (C57BL/6 mouse; [10]): 14.1%; Number of transitions (mouse [1]): 19.6; Time in bright area (%) (mouse [1]): 40.1%; Immobility time (%) (mouse [2]): 32.1%; Immobility time (%) (mouse [3]): 25.2%; BC (ng/mL), corticosterone in blood ([4]; Anxious mouse): 1.2 ng/mL; BC (ng/mL), corticosterone in blood ([4]; Depressive mouse): 3.8 ng/mL; Blood corticosterone [4, 10]: 1.6 ng/mL; Blood corticosterone ([4]; depressed mouse, ELISA, Table 14): 3.8 ng/mL; BDNF expression level [5]: − (− , <10%); NF-kB activation inhibitory capacity [5]: − (− , <10%); Colon length (cm) (colon [6]; Anxious mouse): 5.2 cm; Inflammatory indicator inhibition rate COX-2 (colon [6]; anxious mouse, colon): + (+, 10~30%); Inflammatory indicator inhibition rate NF-κB (colon [6]; anxious mouse, colon): + (+, 10~30%); Inflammatory indicator inhibition rate TNF-α (colon [6]; anxious mouse, colon): + (+, 10~30%); MPO inhibitory capacity (colon [6]; anxious mouse, colon): + (+, 10~30%); Object recognition test (%) (mouse [7]): 42.9%; Y maze test (%) (mouse [8]): 62.4%; Hippocampus BDNF expression capacity (BDNF in a hippocampus): + (+, 10~30%); Colon length (cm) (colon [9]): 5.5 cm; Inflammatory indicator inhibition rate COX-2 (colon [9]; colon): + (+, 10~30%); Inflammatory indicator inhibition rate NF-κB (colon [9]; colon): + (+, 10~30%); Inflammatory indicator inhibition rate TNF-α (colon [9]; colon): + (+, 10~30%); MPO inhibitory capacity (colon [9]; colon): + (+, 10~30%)
